Like-named read-outs stand apart in the source and are kept apart here.
Key:
5HT uptake = assay type: biochemical, rat
NA uptake = assay type: biochemical, rat

| Structure (SMILES) | 5HT uptake % (10) (5HT uptake; hydrochloride) | NA uptake % (10) (NA uptake; hydrochloride) | melting point | 5HT uptake % (10) (5HT uptake) | NA uptake % (10) (NA uptake) |
| --- | --- | --- | --- | --- | --- |
| CN(C)C1(c2ccccn2)CCC(CC(=O)NCCc2c[nH]c3ccccc23)CC1.Cl (centres unmarked) [Example 47, 2-(4-Dimethylamino-4-pyridin-2-ylcyclohexyl)-N-[2-(1H-indol-3-yl)ethyl]acetamide hydrochloride] | 46% | 63% | 150 to 153 °C | – | – |
| CN(C)C1(c2ccccn2)CCC(CC(=O)NCCc2c[nH]c3ccccc23)CC1.Cl (centres unmarked) [Example 48, 2-(4-Dimethylamino-4-pyridin-2-ylcyclohexyl)-N-[2-(1H-indol-3-yl)ethyl]acetamide hydrochloride] | 85% | 74% | – | – | – |
| CN(C)C1(c2ccccn2)CCC(CC(=O)NCCCc2ccccc2)CC1.Cl (centres unmarked) [Example 49, 2-(4-Dimethylamino-4-pyridin-2-ylcyclohexyl)-N-(3-phenylpropyl)acetamide hydrochloride] | – | – | 218 to 220 °C | 32% | 94% |
